Results on two molecules are retold here after BindingDB's records for doi:10.1016/s0960-894x(01)00209-8 (Institut Für Biochemie Der Technischen …, 2001).

The structures appear in SMILES notation.

For orientation: Ki means a dissociation constant, usually derived from enzyme kinetics or from competition with a known ligand. A lower Ki goes with higher affinity.

The test concerns the target Beta-glucosidase (Agrobacterium sp.) (UniProt P12614). The test can be described thus: Inhibitory activity against Agrobacterium sp. Beta-glucosidase employing fluorescence spectrometric method.

Chain of Beta-glucosidase (Agrobacterium sp.) (P12614 whole entry, looked up): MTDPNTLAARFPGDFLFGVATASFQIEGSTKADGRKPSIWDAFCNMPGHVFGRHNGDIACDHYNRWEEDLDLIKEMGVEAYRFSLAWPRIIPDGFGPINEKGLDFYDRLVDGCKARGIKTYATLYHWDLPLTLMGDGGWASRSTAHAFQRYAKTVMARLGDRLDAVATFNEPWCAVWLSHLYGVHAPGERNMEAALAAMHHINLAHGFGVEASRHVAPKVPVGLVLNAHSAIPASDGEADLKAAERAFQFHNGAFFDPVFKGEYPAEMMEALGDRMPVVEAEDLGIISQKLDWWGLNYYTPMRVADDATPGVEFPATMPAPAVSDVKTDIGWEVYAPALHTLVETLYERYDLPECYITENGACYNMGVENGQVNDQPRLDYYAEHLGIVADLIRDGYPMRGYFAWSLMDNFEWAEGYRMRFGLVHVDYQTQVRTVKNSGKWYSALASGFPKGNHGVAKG

Turning to `CN(C)c1cccc2c(S(=O)(=O)NC[C@H]3N[C@H](CO)[C@H](O)[C@@H]3O)cccc12` [5-Dimethylamino-naphthalene-1-sulfonic acid ((3S,4S,5R)-3,4-dihydroxy-5-hydroxymethyl-pyrrolidin-2-ylmethyl)-amide], the inhibition constant (Ki) was 2.4 nM.

As for `CN(C)c1cccc2c(S(=O)(=O)NCCCCCC(=O)NC[C@H]3N[C@H](CO)[C@H](O)[C@@H]3O)cccc12` [6-(5-Dimethylamino-naphthalene-1-sulfonylamino)-hexanoic acid ((3S,4S,5R)-3,4-dihydroxy-5-hydroxymethyl-pyrrolidin-2-ylmethyl)-amide], the Ki amounted to 2.1 nM.
